Experimental data taken from the supplement of paper PMC10307832.

Experiments:
Assay in all cases: relative viability (nuclei count vs DMSO), 5 days (fraction); higher = more cells survive
Shikonin + Pemetrexed = compound: CC(C)=CC[C@@H](O)C1=CC(=O)c2c(O)ccc(O)c2C1=O [Shikonin] + Nc1nc2[nH]cc(CCc3ccc(C(=O)N[C@@H](CCC(=O)O)C(=O)O)cc3)c2c(=O)[nH]1 [Pemetrexed] (partner 0.2 µM)
Outline: (§1)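 Lung cancer cell lines in 1536-well plates got either a single drug or a fixed anchor-drug dose together with five library-drug doses (not always all listed) in √10 steps, by pin tool, on the day after seeding. Nuclei were counted after 5 days, and relative viability is the treated-to-vehicle ratio of nuclei counts. Values are medians of duplicate plates.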

[1] = compound: CC(C)N(CCCNC(=O)Nc1ccc(C(C)(C)C)cc1)C[C@H]1O[C@@H](n2ccc3c(N)ncnc32)[C@H](O)[C@@H]1O + COc1cc2c(Oc3ccc(NC(=O)C4(C(=O)Nc5ccc(F)cc5)CC4)cc3F)ccnc2cc1OCCCN1CCOCC1 [Foretinib] (partner 0.25 µM)
Outline: as §1

[2] = compound: CC(C)N(CCCNC(=O)Nc1ccc(C(C)(C)C)cc1)C[C@H]1O[C@@H](n2ccc3c(N)ncnc32)[C@H](O)[C@@H]1O + Cc1cc(Nc2cc(N3CCN(C)CC3)nc(Sc3ccc(NC(=O)C4CC4)cc3)n2)n[nH]1 [Tozasertib] (partner 0.1 µM)
Outline: as §1

[3] = compound: CC(C)N(CCCNC(=O)Nc1ccc(C(C)(C)C)cc1)C[C@H]1O[C@@H](n2ccc3c(N)ncnc32)[C@H](O)[C@@H]1O + Nc1nc2[nH]cc(CCc3ccc(C(=O)N[C@@H](CCC(=O)O)C(=O)O)cc3)c2c(=O)[nH]1 [Pemetrexed] (partner 0.2 µM)
Outline: as §1

Cell Line | relative viability (Shikonin + Pemetrexed; first compound 0.01 µM) | relative viability (Shikonin + Pemetrexed; first compound 0.1 µM) | relative viability (Shikonin + Pemetrexed; first compound 0.3162 µM) | relative viability (Shikonin + Pemetrexed; first compound 1 µM) | relative viability ([1]; first compound 0.08 µM) | relative viability ([1]; first compound 0.253 µM) | relative viability ([1]; first compound 0.8 µM) | relative viability ([1]; first compound 2.53 µM) | relative viability ([1]; first compound 8 µM) | relative viability ([2]; first compound 0.08 µM) | relative viability ([2]; first compound 0.253 µM) | relative viability ([2]; first compound 0.8 µM) | relative viability ([2]; first compound 2.53 µM) | relative viability ([2]; first compound 8 µM) | relative viability ([3]; first compound 0.08 µM) | relative viability ([3]; first compound 0.253 µM) | relative viability ([3]; first compound 0.8 µM) | relative viability ([3]; first compound 2.53 µM) | relative viability ([3]; first compound 8 µM)
NCI-H1915 | 0.442 | 0.684 | 0.517 | 0.449 | 1.02 | 1.07 | 1.06 | 1 | 1.03 | 0.443 | 0.401 | 0.434 | 0.388 | 0.426 | 0.444 | 0.473 | 0.449 | 0.467 | 0.497
NCI-H1666 | 0.869 | 0.854 | 0.916 | 0.861 | 0.976 | 0.949 | 1.03 | 0.938 | 0.92 | 0.512 | 0.563 | 0.632 | 0.563 | 0.695 | 0.895 | 0.909 | 0.919 | 0.796 | 0.819
HCC-366 | 0.172 | 0.185 | 0.161 | 0.15 | 0.89 | 0.939 | 0.975 | 0.9 | 0.867 | 0.0971 | 0.163 | 0.157 | 0.0768 | 0.103 | 0.14 | 0.266 | 0.129 | 0.18 | 0.166
SK-MES-1 | 0.923 | 1.17 | 0.984 | 1.01 | 0.792 | 0.848 | 0.881 | 1 | 0.804 | 0.855 | 0.959 | 0.962 | 0.92 | 0.872 | 1.05 | 0.915 | 0.819 | 1.03 | 0.912
NCI-H1993 | 0.561 | 0.619 | 0.557 | 0.627 | 0.755 |  |  | 0.796 | 0.784 | 0.564 |  |  | 0.624 | 0.591 | 0.564 |  | 0.533 | 0.638 | 0.543
NCI-H838 | 0.234 | 0.24 | 0.243 | 0.258 | 1.05 | 0.981 | 1.17 | 0.981 | 0.943 | 0.258 | 0.264 | 0.341 | 0.275 | 0.233 | 0.259 | 0.223 | 0.283 | 0.245 | 0.235
SK-LU-1 | 1.14 | 1.17 | 1.01 | 0.994 | 0.904 | 0.919 | 0.898 | 0.911 | 0.754 | 0.35 | 0.41 | 0.352 | 0.49 | 0.346 | 1 | 1.01 | 1.04 | 0.983 | 0.915
NCI-H1623 |  |  |  |  | 0.836 | 0.952 | 0.795 | 0.83 | 0.801 | 0.426 | 0.452 | 0.414 | 0.408 | 0.45 |  |  |  |  | 
